In patent US4632922A, “Oxomorpholinyl dimer and rescue of anthracycline and mitomycin C damage” (The United States of America as represented by the …, priority 1985, dated 1986):

How the values were obtained:
[1] = Stability of DHM3 in water upon exposure to air; type: physicochemical
Procedure: Oxazinone 2 (6.0 g, 0.019 mol) was dissolved in 500 ml of 2-propanol (Fisher). The solution was irradiated with a 450 W mercury immersion lamp through a Pyrex filter. Throughout the reacion the photochemical apparatus was immersed in a bath kept at 0° C. and nitrogen was bubbled through the solution. The disappearance of the oxazinone chromophore was monitored by UV spectroscopy. After 24 h, when the UV maximum at 323 nm had disappeared, the irradiation was stopped, and the solvent quickly rotary evaporated without delay at ambient temperature (20°-28° C.) first at 15-20 Torr, then at 1 Torr. The residue was dissolved in 70 ml of chloroform and the solution was stored in a freezer at about -18° C. for 6 days. The resulting pricipitate was collected by suction filtration, washed thoroughly with cold chloroform (≈10° C.) and dried under vaccuum to give 2.9 g (48%) of a white powder, mp 121°-124° C. An additional crop of crystals (0.64 g) was obtained from the mother liquors after two more weeks in the freezer. […] Minor peaks in the spectrum were present in areas compatible with the presence of other stereoisomers. Infrared and analytical data are as follows: IR (KBr) 3160, 2900, 1715, 1455, 1285, 1220, 1040, 770, 715 cm^-1; anal. calcd. for C14 H24 N2 O6 : C, 53.15; H, 7.65; N, 8.85. Found: C, 53.00; H, 7.70; N, 8.84. […]

swine skin = test: Intradermal DHM3 alone (control injections), tolerance and histology in swine; type: in vivo, miniature white swine
Procedure: In order to produce anthracycline induced tissue damage, clinical grade doxorubicin (DOX) hydrochloride was obtained as a representative anthracycline chemical from the Drug Synthesis Branch, Developmental Therapeutics Program, National Cancer Institute. Each vial contained 10 mg DOX hydrochloride and 50 mg lactose which was reconstituted with 5.0 ml sterile 0.9% NaCl solution to give a final drug concentration of 2.0 mg/ml. DHM3 solution was prepared by dissolving 10 mg in ice-cold water which had been purged with N2 gas for 5 minutes. Dissolution was facilitated by brief sonication to give a final concentration of 10 mg/ml. The solution was kept cold (≈4° C.) and protected from air and light.
Female weanling miniature white swine weighing approximately 12 kg were obtained from the Veterinary Resources Branch, National Institutes of Health. The development of this strain of swine has been described previously (Sachs, et al., Transplantation 22:559-567, 1976). Each animal was housed in a 6×4 ft metabolic cage and was fed standard NIH show chow, 1.5 lbs twice daily.
DOX HCl (2.0 mg/ml) was administered intradermally (i.d.) with a 25 gauge needle inserted approximately 4 to 5 mm into the skin. Following the injection of 0.5, 0.75 or 1.0 ml (1.0, 1.5, or 2.0 mg, respectively) DOX solution, the syringe was removed from the hub leaving the needle in place. After the indicated time interval, 1.0 ml (10 mg) DHM3 was injected through the same needle and the needle was then removed. Control sites received 1.0 ml sterile water instead of DHM3. The injection sites were along the mid-lateral aspect of each side of the swine and were 4-5 cm apart (6-8 injection sites per side). One animal was used for a dose experiment where DOX, 0.5 ml/site was injected along one side and 1.0 ml/site was injected along the contralateral side. Fifteen minutes later, DHM3 or water was injected into alternating sites as described above. A second animal received DOX, 0.75 ml/site along both sides. […]

[2] = Kinetics of reaction of DHM3 with daunorubicin in water solvent
Procedure: A test similar to that described for the same reaction in methanol solvent (vide supra) was run. Oxomorpholinyl dimer DHM3 (1.38 mg, 4.37×10^-3 mmol) was dissolved in 0.5 ml of oxygen-free methanol and quickly transferred without delay into one compartment of the cell. The solvent was promptly removed under vacuum. Daunorubicin hydrochloride ([…]) was dissolved in 100 ml of an aqueous solution of Tris (24.2 mg) and Tris hydrochloride (31.6 mg) and 2.6 ml of this solution (4.18×10^-4 mmol of 6) was introduced into the other compartment of the cell. The sample was freeze-thaw degassed over three cycles as described above, sealed, and placed in a thermostatted cell holder at 10.0±0.1° C. for about 20 min prior to mixing. Full spectra between 320 and 800 nm were recorded every 10 sec for the first 125 sec, and then every 20 sec. From the absorbance change at 620 nm over the first 85 sec (50% reaction of daunorubicin), a non-linear least-squares treatment gave a first order rate constant for bond homolysis of DHM3 (k1) equal to 6×10^-4 sec^-1 and a first order rate constant for destruction of 7 (k2) equal to 2×10^-2 sec^-1. Treatment of the data obtained in the 164-225 sec interval gave k2 =2.8×10^-2 sec^-1.
Thus, when a ten-fold excess of DHM3 is reacted with an oxygen-free 2×10^-4 M solution of 6 in buffered water (pH8) at 10° C., the absorbance of the solution at 618-620 nm, due to the tautomer 7, reaches its maximum after 125 sec and then decreases quickly, with an 80% decrease in 100 sec. Here again the formation and destruction of 7, as calculated from the data obtained in the first 85 sec of reaction, follows consecutive first order kinetics, first order in DHM3 and 7, with k1 =6×10^-4 sec^-1, k2 =2×10^-2 sec^-1 and ε7 =9600. Calculation of k2 from the absorbance data taken after 165 sec of reaction time, when only first order destruction of 7 is observed, gives a value of 2.8×10^-2 sec^-1.

Structure (SMILES): CC1(CO)COC(=O)C(C)(C2(C)NC(C)(CO)COC2=O)N1 (stereo not drawn) [DHM3, bi(3,5-dimethyl-5-hydroxymethyl-2-oxomorpholin-3-yl)]
- stability to air in water [1]: quickly gives rise to an absorption maximum at 310 nm, characteristic of the oxazinone
- tissue injury (histology) (swine skin): did not cause any tissue injury except for mild upper dermis congestion
- tolerance of control i.d. injections (swine skin): well tolerated
- ulcer formation (swine skin): no ulcer formation occurred
- reactivity with daunorubicin compared with TM-3 ([2]; DHM3 in water vs TM-3 in methanol): approximately the same reactivity
- first order rate constant for bond homolysis of DHM3 (k1) ([2]; buffered water (pH8), 10.0±0.1° C., first 85 sec): 0.0006 s⁻¹
